Experimental data taken from patent US8431529B2, “Bi-dentate compounds as kinase inhibitors” (Sanford-Burnham Medical Research Institute, priority 2007, dated 2013).
Non-standard residues stand in square brackets, D forms with d. Residues, ends and D or L forms follow the SMILES beside them. No end group written: not given here. *: point of attachment. X1 = O=C(NCCCN*)c1ccc(-c2n[nH]c3ccccc23)cc1

Columns and labels:
JNK1 [1] = molecular target: T1, JNK1 (Homo sapiens, UniProt P45983); test: DELFIA assay: displacement of biotinylated pepJIP1 (L-JIP1 peptide) from GST-JNK1; format: binding; settings: for Delfia Assay (Displacement of L-JIP1 peptide from JNK), ND class: Table 1, ND with footnote
Experimental: In order to define an optimal interacting docking peptide sequence for JNK, twenty peptide sequences were tested, which were derived from its putative substrates and scaffolding proteins, all presenting a D-domain consensus motif. Each peptide was tested for its ability to displace pepJIP1 (residues 153-164) from JNK1 by using a Dissociation Enhanced Lanthanide Fluoro-Immuno Assay (DELFIA) platform. DELFIA is a heterogeneous assay whereby a biotin-linked pepJIP1 is adsorbed onto a streptavidin-coated plate followed by incubation with GST-JNK1. Detection of the pepJIP1/GST-JNK1 complex is facilitated by a highly fluorescent anti-GST Eu-antibody conjugate (Perkin-Elmer).
DELFIA Assay (dissociation enhanced lanthanide fluoro-immuno assay). […] After 1 hr incubation and elimination of unbound biotin-pepJIP1 by 3 washing steps, 87 μL of Eu-labeled anti-GST antibody solution (300 ng/ml; 1.9 nM), 2.5 μL DMSO solution containing test compound, and 10 μL solution of GST-JNK1 for a final protein concentration of 10 nM was added. After 1 hr incubation at 0° C., each well was washed 5 times to eliminate unbound protein and the Eu-antibody if displaced by a test compound. Subsequently, 200 μL of enhancement solution (Perkin-Elmer) was added to each well and fluorescence measured after 10 min incubation (excitation wavelength, 340 nm; emission wavelength, 615 nm). Controls include unlabeled peptide and blanks receiving no compounds. Protein and peptide solutions were prepared in DELFIA buffer (Perkin-Elmer).

JNK1 [2] = molecular target: T1, JNK1; test: LanthaScreen TR-FRET in vitro kinase activity assay, JNK1 phosphorylation of ATF2; format: biochemical; settings: for Kinase Activity Assay (JNK), ND class: Table 1, ND with footnote
Experimental: LanthaScreen™ In vitro Kinase Assay. LanthaScreen™ assay platform from Invitrogen was utilized. The time-resolved fluorescence resonance energy transfer assay (TR-FRET) was performed in 384 well plates. Each well received JNK1 (100 ng/mL), ATF2 (200 nM), and ATP (1 μM) in 50 mM HEPES, 10 mM MgCl2, 1 mM EGTA and 0.01% Brij-35, pH 7.5 and test compounds. The kinase reaction was performed at room temperature for 1 hr. After this time, the terbium labeled antibody and EDTA were added into each well. After an additional hour incubation, the signal was measured at 520/495 nm emission ratio on a BMG Pherastar fluorescence plate reader.

p38α = p38α (Homo sapiens, UniProt Q16539); test: LanthaScreen kinase activity assay with ATF2 substrate versus p38α; format: biochemical
Experimental: In order to confer further favorable pharmacological properties to this compound for in vivo studies, analogous to the clinical candidate D-JNK1^15, an all-D retro-inverso version of BI77B8 fused to the cell penetrating HIV-TAT sequence was prepared. […] LanthaScreen™ In vitro Kinase Assay. LanthaScreen™ assay platform from Invitrogen was utilized. The time-resolved fluorescence resonance energy transfer assay (TR-FRET) was performed in 384 well plates. […] After this time, the terbium labeled antibody and EDTA were added into each well. After an additional hour incubation, the signal was measured at 520/495 nm emission ratio on a BMG Pherastar fluorescence plate reader.

[3] = Table 1, read-out: Delfia Assay (Displacement of L-JIP1 peptide from JNK) IC50
[4] = Table 1, read-out: Kinase Activity Assay (JNK) IC50
[5] = Table 2, read-out: IC50 (μM), Kinase Assay
[6] = Table 3, read-out: pepJIP Displacement IC50
[7] = JNK1, ATF2 substrate, read-out: Kinase Inhibition IC50

p38α, sequence (Q16539 whole entry, the tested form may be a part): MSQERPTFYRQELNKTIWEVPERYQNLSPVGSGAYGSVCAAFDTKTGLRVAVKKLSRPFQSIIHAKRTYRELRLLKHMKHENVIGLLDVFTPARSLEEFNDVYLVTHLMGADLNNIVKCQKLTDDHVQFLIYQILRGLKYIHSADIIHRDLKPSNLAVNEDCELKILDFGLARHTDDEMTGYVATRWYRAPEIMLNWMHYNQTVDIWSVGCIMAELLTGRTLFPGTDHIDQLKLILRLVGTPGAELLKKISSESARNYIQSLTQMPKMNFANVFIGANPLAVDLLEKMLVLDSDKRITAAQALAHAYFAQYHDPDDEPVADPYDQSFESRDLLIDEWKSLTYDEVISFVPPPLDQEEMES
T1 sequence (P45983 whole entry, species assumed, the tested form may be a part): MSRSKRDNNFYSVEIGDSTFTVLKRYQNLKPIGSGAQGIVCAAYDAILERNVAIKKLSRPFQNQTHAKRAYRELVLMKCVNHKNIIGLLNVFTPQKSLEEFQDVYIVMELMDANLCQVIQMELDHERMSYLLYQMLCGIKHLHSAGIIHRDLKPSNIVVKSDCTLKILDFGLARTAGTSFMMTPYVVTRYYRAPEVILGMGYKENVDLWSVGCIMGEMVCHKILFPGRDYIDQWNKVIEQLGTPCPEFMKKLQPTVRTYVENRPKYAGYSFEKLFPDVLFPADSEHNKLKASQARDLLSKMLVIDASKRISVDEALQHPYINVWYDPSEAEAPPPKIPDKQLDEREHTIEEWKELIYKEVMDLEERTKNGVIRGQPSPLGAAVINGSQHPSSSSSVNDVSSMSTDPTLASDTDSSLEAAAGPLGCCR

RPKRPTTLNLF
IC50 (JNK1 [1]; [3]): 2.9 µM | IC50 (JNK1 [2]; [4]): 0.423 µM | Kinase Activity Assay (p38[…]) % at 50 μM (p38α): 6% at 50 μM

NCCCNC(=O)c1ccc(-c2n[nH]c3ccc(NC(=O)Cc4cccs4)cc23)cc1
IC50 (JNK1 [2]; [5]): 1.9 µM

NCCCNC(=O)c1ccc(-c2n[nH]c3ccccc23)cc1
Delfia Assay (Displacement of L-JIP1 peptide from JNK), ND class (JNK1 [1]): ND^*) (In the Delfia Assay, no displacement up to 100 μM)

Ac-LNLGG-OH
Delfia Assay (Displacement of L-JIP1 peptide from JNK), ND class (JNK1 [1]): ND^*) (In the Delfia Assay, no displacement up to 100 μM) | Kinase Activity Assay (JNK), ND class (JNK1 [2]): ND^*) (in the Kinase Assay, no activity at 25 μM)

CC(C)(C)OC(=O)NCCCCCNC(=O)c1ccc(-c2n[nH]c3ccccc23)cc1
IC50 (JNK1 [2]; [5]): 2.3 µM

Ac-RPTTLNL-OH [BI-77F10, Ac-RPTTLNL-OH]
IC50 (JNK1 [1]; [6]): 4.5 µM | IC50 (JNK1 [2]; [7]): > 50 µM | Inhibition of JNK1 phosphorylation of ATF2 (JNK1 [2]; at concentrations up to 25 μM): unable to inhibit

Ac-PTTLNLGG-OH
Delfia Assay (Displacement of L-JIP1 peptide from JNK), ND class (JNK1 [1]): ND^*) (In the Delfia Assay, no displacement up to 100 μM) | Kinase Activity Assay (JNK), ND class (JNK1 [2]): ND^*) (in the Kinase Assay, no activity at 25 μM)

AcGRKKRRQRRRGGRPTTLNLGG (Ac-GRKKRRQRRRGGRPTTLNLGG)
Kinase Activity Assay (JNK) % inhibition (JNK1 [2]; at 50 μM): 90% | Kinase Activity Assay (p38[…]) % at 50 μM (p38α): 6% at 50 μm

CC(C)CC(NC(=O)C(CC(N)=O)NC(=O)C(CC(C)C)NC(=O)C(NC(=O)C(NC(=O)C1CCCN1C(=O)C(N)CCCNC(=N)N)C(C)O)C(C)O)C(=O)NCC(=O)NCC(=O)NCCCNC(=O)c1ccc(-c2n[nH]c3ccccc23)cc1 (centres unmarked) [BI-77B8] (H-RPTTLNLGG-X1; configuration not given here)
Affinity in competition with pepJIP1 for JNK1 binding (JNK1 [1]): sub-nanomolar | IC50 (JNK1 [1]; [6]): 0.9 µM | Affinity in inhibition of JNK1 kinase activity (JNK1 [2]): sub-nanomolar | IC50 (JNK1 [2]; [7]): 0.7 µM | Improvement of kinase inhibition compared with pepJIP1 (JNK1 [2]; direct comparison with pepJIP1): over 100 fold

CC(C)(C)OC(=O)NCCCNC(=O)c1ccc(-c2n[nH]c3ccc(NC(=O)Cc4cccs4)cc23)cc1
IC50 (JNK1 [2]; [5]): 1.2 µM

CC(C)(C)OC(=O)NCCCNC(=O)c1ccc(-c2n[nH]c3ccccc23)cc1
Delfia Assay (Displacement of L-JIP1 peptide from JNK), ND class (JNK1 [1]): ND^*) (In the Delfia Assay, no displacement up to 100 μM) | IC50 (JNK1 [2]; [4]): 3.5 µM

Ac-LNL-OH
Delfia Assay (Displacement of L-JIP1 peptide from JNK), ND class (JNK1 [1]): ND^*) (In the Delfia Assay, no displacement up to 100 μM) | Kinase Activity Assay (JNK), ND class (JNK1 [2]): ND^*) (in the Kinase Assay, no activity at 25 μM)

COC(=O)c1ccc(-c2n[nH]c3ccccc23)cc1
IC50 (JNK1 [2]; [5]): 9.7 µM

GGLNLTTPRGGRRRQRRKKRG-NH2 (GG[dL][dN][dL][dT][dT][dP][dR]GG[dR][dR][dR][dQ][dR][dR][dK][dK][dR]G-NH2)
Kinase Activity Assay (JNK) % inhibition (JNK1 [2]; at 50 μM): 11% | Kinase Activity Assay (p38[…]) % at 50 μM (p38α): 0% at 50 μm

Ac-tdqsrpvqpflnlttprrprpprrrqrrkkrg-OH [D-JNKI]
IC50 (JNK1 [1]; [6]): ~10 µM | IC50 (JNK1 [2]; [7]): > 50 µM

CN1CCN(CCC(=O)NCCCCCNC(=O)c2ccc(-c3n[nH]c4ccccc34)cc2)CC1
IC50 (JNK1 [2]; [5]): 4.5 µM

Compound I (RPTTLNLGG; also: conjugate per reaction scheme A)
Inhibitor activity compared with peptide Ac-RPTTLNLGG-OH and product 8 (JNK1 [1]; FIGS. 1A-1D, Delfia Assay): substantially more active | ATP competition analysis (JNK1 [2]; FIGS. 2A, 2B): competitive, at least to some extent | ATF2 competition analysis (JNK1 [2]; FIGS. 2C, 2D): competitive, at least to some extent | Selectivity relative to p38a (p38α; FIGS. 3A, 3B): good selectivity

Ac-RPTTLNLGG-OH
IC50 (JNK1 [1]; [3]): 18 µM | inhibition at 50 µM (JNK1 [2]; at 50 μM, read-out: Kinase Activity Assay (JNK) % inhibition): 25%

COC(=O)CCCNC(=O)c1ccc(-c2n[nH]c3ccccc23)cc1
IC50 (JNK1 [2]; [5]): 0.9 µM
